Measurements reported in ChEMBL document CHEMBL1147352, “Paniceins and related sesquiterpenoids from the Mediterranean sponge Reniera fulva” (1993).

Assays:
CCRF-CEM = experiment: Cytotoxicity against human CCRF-CEM cells; type: functional; conditions: for GI50: read-out: Log10GI50 (converted); for TGI: read-out: Log10TGI (converted)
NCI-H522 = experiment: Cytotoxicity against human NCI-H522 cells; type: functional; conditions: for GI50: read-out: Log10GI50 (converted); for CC50: read-out: Log10LC50 (converted); for TGI: read-out: Log10TGI (converted)

Row | Compound | GI50 (CCRF-CEM) [µM] | TGI (CCRF-CEM) [µM] | GI50 (NCI-H522) [µM] | CC50 (NCI-H522) [µM] | TGI (NCI-H522) [µM] | CC50 (CCRF-CEM; read-out: Log10LC50 (converted)) [µM]
1 | C/C(=C\Cc1cc(O)ccc1O)CCc1c(C)c(O)c(O)c(C=O)c1C [PANICEIN C] | 3.31 | 9.55 | 5.25 | 63.1 | 21.4 | 
2 | C/C(=C\Cc1cc(O)ccc1O)CCc1c(C)cc(O)c(C=O)c1C [PANICEIN B3] | 4.47 | 30.2 | 10 | 55 | 23.4 | 
3 | COc1cc(C)c(CC/C(C)=C/Cc2cc(O)ccc2O)c(C)c1C [PANICEIN A HYDROQUINONE] | 7.76 | > 25.1 |  |  |  | > 25.1
